Measurements: patent US8207137B2, “Method of inhibiting angiogenesis or invasion or formation of metastases” (INSERM, priority 2001, dated 2012)

Legend:
endothelial cells (CPAE) = assay: Apoptosis and cell cycle by flow cytometry (Hoechst 33342 and annexin V); type: cell-based, bovine
Procedure: Technique of specific vital staining of DNA with Hoechst 33342 (Sigma).
The endothelial cells (CPAE) were trypsinated and the cell suspension was adjusted to 1·10^6 cells/ml. Hoechst 33342 dye was added at the rate of 20 μg/ml and the cells were incubated for three minutes at ambient temperature under agitation. The percentage of apoptotic cells was analyzed by a flow cytometer (FACS). The cells were then incubated for 30 minutes in darkness (37° C.) and analysis of the cell cycle was performed.
Technique using annexin V (R and D system): A residue of 1·10^6 endothelial cells (CPAE) was resuspended in 1 ml of reaction buffer (100 μl of 10× binding buffer (100 mM Hepes/NaOH pH 7.4, 1.5 M NaCl, 50 mM KCl, 10 mM MgCl2, 18 mM CaCl2), 100 μl of propidium iodide (initial concentration 50 μg/ml), 10 μl of annexin V-FITC and 790 μl of deionized water. The suspension was incubated for 15 minutes in darkness at ambient temperature. The percentage of apoptotic cells was analyzed by flow cytometry.

B16F10 = assay: Cell proliferation, tritiated thymidine incorporation; type: cell-based, murine; settings: B16F10 cancer cells, mean±SEM
Procedure: The cells were cultured at the rate of 20,000 cells per well (96-well plate, Greiner) in the complete medium. After 24 h, the cells were cultured in a medium containing a concentration lower by half than that corresponding to the complete medium to induce the cell in phase G0/G1 of proliferation for 24 supplementary hours. The cells were then cultured for 30 h with complete medium in the presence or without the presence of AMEP. Tritiated thymidine (1 μCi per well) was then added to the cells and incubated for 18 hours. Incorporation of the tritiated thymidine by the cells was quantified by filter paper according to the protocol described for the use of a Skatron (Skatron, Lier, Norway). Radioactivity was then determined by counting after addition of scintillation liquid. The results were expressed as a percentage in relation to the control.

B16F10 cells = assay: Syngenic metastatic tumor model (pulmonary metastases); type: in vivo; settings: C57B1/6 mice, B16F10 i.v.; AMEP expressed in muscle, doxycycline induction; after 7 days of treatment
Text: The cDNA of AMEP was subcloned at the Eco RV site of the vector pBi (Clonetech, Palo Alto, Calif., USA). The expression of the gene of interest in this vector was under the dependence of a promoter responding to tetracycline in an expression system involving the eukaryote gene Tet-On. The Tet-On vector expresses the transactivator rtTA (reverse tetracycline transcriptional activator) and the vector Tet-tTS expresses the silencer tTS (tetracycline transcriptional silencer). The purifications of the plasmids were performed in a manner such that no endotoxin was present (Maxi endo free Kit, Quiagen). The purified plasmid DNA was dissolved in endotoxin-free sterile 0.9% NaCl at the desired concentration.
20 μg of plasmid pBi-AMEP, 10 μg of plasmid Tet-off and 20 μg of plasmid Tet-on were dissolved in 30 μl of sterile 0.9% NaCl and injected into the tibia cranial muscle of nude or C57B1/6 mice aged 8 weeks and previously anesthetized by intraperitoneal inoculation of pentobarbital as described by Mir et al. (Mir et al., 1999). In brief, 8 electric shocks of 200 V/cm were applied for 20 ms at a frequency of 1 Hz, by means of an electrode to the mouse paw and containing two steel plates. The electrode was connected to an electropulsator PS-15 (Jouan, St Herblain, France). The same plasmids not containing the AMEP gene constituted the negative control. […]

[1] = tested on: MDA MB 231 subcutaneous solid tumors; assay: Quantification of tumoral angiogenesis (CD31 immunohistochemistry and image analysis); type: in vivo, nude mice
Procedure: The tumor tissues were fixed in ethanol. Sections of 5 μm were prepared in paraffin. The endogenous peroxidase was extinguished by 3% of H2O2 for 10 minutes so that the sections could be used in immunohistochemistry. After washing the sections with distilled water then saturation with 1:10 Optimax serum (BioGenex, San Ramon, Calif.) for 10 minutes, the slides were incubated for 1 h with an anti-CD31 rat antibody (endothelial cell adhesion molecule) at 1:50. After two washings with Optimax for 4 minutes, the slides were incubated with an anti-rat goat polyclonal antibody coupled to biotin (1/50) followed by two 4-minute washings with Optimax. The slides were then treated with a DAB chromogenic substrate for 10 minutes, washed with distilled water, counterstained with Mayer's hematoxylin and mounted on Pertex. All of the slides were immunotagged and counterstained on the same day to ensure a standardized intensity of the tagging.
For each animal, a representative histological sample of the sections tagged with CD31 was subjected to image analysis using an AxiophotZeiss microscope (Germany) and a Sony 3CCD camera (resolution 768×576 pixels). Selection of an enlargement×100 allowed digitization of the totality of the sample. […] The images were analyzed with a specific Linux-based program producing a quantitative index from 0 to 255. […]

For “AMEP: disintegrin domain of human metargidin (Met-420 to Glu-511, SEQ ID NO. 2), 91 amino acids, 9.7 kDa; recombinant or expressed in vivo by gene electrotransfer”, the “% of apoptotic cells, Hoechst 33342 method” value (endothelial cells (CPAE); CPAE, AMEP 5 μg/ml, control 3.9 ± 1.1, mean±SEM) was 12.6 ± 3.7%, the “% of apoptotic cells, Annexin-V method” value (endothelial cells (CPAE); CPAE, AMEP 5 μg/ml, control 4.6 ± 0.9, mean±SEM) was 12.8 ± 2.5% and the “modification of the cell cycle” value (endothelial cells (CPAE); Hoechst 33342, not shown) was “no modification of the cell cycle”. The “percentage of apoptotic cells multiplied by (factor versus control)” value (endothelial cells (CPAE); both methods (Hoechst 33342, annexin-V)) was 3, the “% inhibition of cell proliferation by AMEP (5 μg/ml)” value (B16F10) was 74.3 ± 7.0% and the “inhibition of the number of pulmonary metastases” value (B16F10 cells) was 74.2%. For the same substance, the “statistical index of tumor vascularization, Mean” value ([1]; CD31-tagged tumor sections, index scale 0 to 255, control group 2.96) was 1.38 and the “inhibition of the number of vessels within the tumors” value ([1]; tumors of nude mice treated with AMEP versus control) was 53.4%.
